Reference: patent US20210045385A1, “PYRIDAZINONE-SUBSTITUTED KETOXIMES AS HERBICIDES” (FMC Corporation, priority 2018, published 2021)

Tests used:
Format in all cases: in vivo
[1] = tested on: barnyardgrass (Echinochloa crus-galli); test: Test D flooded paddy test, visual plant response rating; details: 250 g ai/ha, scale 0 to 100 (0 no effect, 100 complete control), 13 to 15 d
Method in brief: (§1)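 Rating is visual, on a 0 (no effect) to 100 (complete control) scale versus controls, taken 13 to 15 d after treatment in a greenhouse. Treatment went into paddy water kept 3 cm above the soil surface, with plants at the 2-leaf stage.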

[2] = tested on: duck salad (Heteranthera limosa); test: as above; details: 250 g ai/ha, scale 0 to 100 (0 no effect, 100 complete control), 13 to 15 d
Method in brief: as §1

[3] = tested on: rice (Oryza sativa); test: as above; details: 250 g ai/ha, scale 0 to 100 (0 no effect, 100 complete control), 13 to 15 d
Method in brief: as §1

[4] = tested on: sedge umbrella (small-flower umbrella sedge, Cyperus difformis); test: as above; details: 250 g ai/ha, scale 0 to 100 (0 no effect, 100 complete control), 13 to 15 d
Method in brief: as §1

[5] = tested on: pigweed (Amaranthus retroflexus); test: Test C preemergence, visual plant response rating; details: Test C, 0 is no effect, 100 is complete control
Method in brief: (§2)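 Visual injury on a 0 (no effect) to 100 (complete control) scale versus untreated controls, scored approximately 10 d after treatment under greenhouse conditions. Treatments used surfactant-containing non-phytotoxic solvent formulations, sprayed onto loam–sand soil preemergence or onto one- to two-leaf plants 2–10 cm tall postemergence.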

[6] = tested on: barnyardgrass (Echinochloa crus-galli); test: Test C preemergence, visual plant response rating; details: Test C, 0 is no effect, 100 is complete control
Method in brief: as §2

[7] = tested on: ragweed (common ragweed, Ambrosia artemisiifolia); test: Test C preemergence, visual plant response rating; details: Test C, 0 is no effect, 100 is complete control
Method in brief: as §2

[8] = tested on: kochia (Bassia scoparia); test: Test C preemergence, visual plant response rating; details: Test C, 0 is no effect, 100 is complete control
Method in brief: as §2

[9] = tested on: foxtail, giant (giant foxtail, Setaria faberi); test: Test C preemergence, visual plant response rating; details: Test C, 0 is no effect, 100 is complete control
Method in brief: as §2

[10] = tested on: Italian ryegrass (Lolium mutiflorum); test: Test C preemergence, visual plant response rating; details: Test C, 0 is no effect, 100 is complete control
Method in brief: as §2

[11] = tested on: pigweed (Amaranthus retroflexus); test: Test C postemergence, visual plant response rating
Method in brief: as §2

[12] = tested on: wheat (Triticum aestivum); test: Test C postemergence, visual plant response rating
Method in brief: as §2

[13] = tested on: corn (Zea mays); test: Test C postemergence, visual plant response rating
Method in brief: as §2

[14] = tested on: barnyardgrass (Echinochloa crus-galli); test: Test C postemergence, visual plant response rating
Method in brief: as §2

[15] = tested on: ragweed (common ragweed, Ambrosia artemisiifolia); test: Test C postemergence, visual plant response rating
Method in brief: as §2

[16] = tested on: kochia (Bassia scoparia); test: Test C postemergence, visual plant response rating
Method in brief: as §2

[17] = tested on: blackgrass (Alopecurus myosuroides); test: Test C postemergence, visual plant response rating
Method in brief: as §2

[18] = tested on: galium (catchweed bedstraw, Galium aparine); test: Test C postemergence, visual plant response rating
Method in brief: as §2

[19] = tested on: foxtail, giant (giant foxtail, Setaria faberi); test: Test C postemergence, visual plant response rating
Method in brief: as §2

[20] = tested on: Italian ryegrass (Lolium mutiflorum); test: Test C postemergence, visual plant response rating
Method in brief: as §2

[21] = Test C, postemergence, 125 g ai/ha

| SMILES | Plant response rating, Barnyardgrass (Flood) [1] | Plant response rating, Ducksalad (Flood) [2] | Plant response rating, Rice (Flood) [3] | Plant response rating, Sedge, Umbrella (Flood) [4] | Pigweed plant response rating (0 to 100 scale) ([5]; 31 g ai/ha) | Pigweed plant response rating (0 to 100 scale) ([5]; 125 g ai/ha) | Barnyardgrass plant response rating (0 to 100 scale) ([6]; 31 g ai/ha) | Barnyardgrass plant response rating (0 to 100 scale) ([6]; 125 g ai/ha) | Ragweed plant response rating (0 to 100 scale) ([7]; 31 g ai/ha) | Ragweed plant response rating (0 to 100 scale) ([7]; 125 g ai/ha) | Kochia plant response rating (0 to 100 scale) ([8]; 31 g ai/ha) | Kochia plant response rating (0 to 100 scale) ([8]; 125 g ai/ha) | Foxtail, Giant plant response rating (0 to 100 scale) ([9]; 31 g ai/ha) | Foxtail, Giant plant response rating (0 to 100 scale) ([9]; 125 g ai/ha) | Ryegrass, Italian plant response rating (0 to 100 scale) ([10]; 31 g ai/ha) | Ryegrass, Italian plant response rating (0 to 100 scale) ([10]; 125 g ai/ha) | Pigweed plant response rating (0 to 100 scale) ([11]; Postemergence, 31 g ai/ha) | Pigweed plant response rating (0 to 100 scale) [11, 21] | Wheat plant response rating (0 to 100 scale) ([12]; Postemergence, 31 g ai/ha) | Wheat plant response rating (0 to 100 scale) [12, 21] | also measured |
| --- | --- | --- | --- | --- | --- | --- | --- | --- | --- | --- | --- | --- | --- | --- | --- | --- | --- | --- | --- | --- | --- |
| C#CCO/N=C(\c1cccc(/C=C\Cl)c1)c1c(O)c(C)nn(C)c1=O [Compound 264] | 0 | 0 | 0 | 0 | 0 | 30 | 0 | 0 | 0 | 30 | 0 | 0 | 0 | 20 | 0 | 90 | 40 | 60 | 20 | 50 | Corn plant response rating (0 to 100 scale) ([13]; Postemergence, 31 g ai/ha): 10; Corn plant response rating (0 to 100 scale) [13, 21]: 0; Barnyardgrass plant response rating (0 to 100 scale) ([14]; Postemergence, 31 g ai/ha): 10; Barnyardgrass plant response rating (0 to 100 scale) [14, 21]: 50; Ragweed plant response rating (0 to 100 scale) ([15]; Postemergence, 31 g ai/ha): 40; Ragweed plant response rating (0 to 100 scale) [15, 21]: 60; Kochia plant response rating (0 to 100 scale) ([16]; Postemergence, 31 g ai/ha): 40; Kochia plant response rating (0 to 100 scale) [16, 21]: 70; Blackgrass plant response rating (0 to 100 scale) ([17]; Postemergence, 31 g ai/ha): 30; Blackgrass plant response rating (0 to 100 scale) [17, 21]: 60; Galium plant response rating (0 to 100 scale) ([18]; Postemergence, 31 g ai/ha): 50; Galium plant response rating (0 to 100 scale) [18, 21]: 70; Foxtail, Giant plant response rating (0 to 100 scale) ([19]; Postemergence, 31 g ai/ha): 10; Foxtail, Giant plant response rating (0 to 100 scale) [19, 21]: 60; Ryegrass, Italian plant response rating (0 to 100 scale) ([20]; Postemergence, 31 g ai/ha): 0; Ryegrass, Italian plant response rating (0 to 100 scale) [20, 21]: 70 |
| CCO/N=C(\c1c(O)c(Cl)nn(C)c1=O)c1ccc(F)c2ccccc12 [Compound 212] | 20 | 60 | 0 | 65 | 10 | 100 | 40 | 80 | 10 | 100 | 0 | 20 | 80 | 100 | 0 | 30 | 50 | 90 | 0 | 0 | Corn plant response rating (0 to 100 scale) ([13]; Postemergence, 31 g ai/ha): 0; Corn plant response rating (0 to 100 scale) [13, 21]: 0; Barnyardgrass plant response rating (0 to 100 scale) ([14]; Postemergence, 31 g ai/ha): 50; Barnyardgrass plant response rating (0 to 100 scale) [14, 21]: 70; Ragweed plant response rating (0 to 100 scale) ([15]; Postemergence, 31 g ai/ha): 100; Ragweed plant response rating (0 to 100 scale) [15, 21]: 90; Kochia plant response rating (0 to 100 scale) ([16]; Postemergence, 31 g ai/ha): 50; Kochia plant response rating (0 to 100 scale) [16, 21]: 50; Blackgrass plant response rating (0 to 100 scale) ([17]; Postemergence, 31 g ai/ha): 0; Blackgrass plant response rating (0 to 100 scale) [17, 21]: 0; Galium plant response rating (0 to 100 scale) ([18]; Postemergence, 31 g ai/ha): 90; Galium plant response rating (0 to 100 scale) [18, 21]: 100; Foxtail, Giant plant response rating (0 to 100 scale) ([19]; Postemergence, 31 g ai/ha): 50; Foxtail, Giant plant response rating (0 to 100 scale) [19, 21]: 80; Ryegrass, Italian plant response rating (0 to 100 scale) ([20]; Postemergence, 31 g ai/ha): 10; Ryegrass, Italian plant response rating (0 to 100 scale) [20, 21]: 80 |
